The source of these data is patent publication US11925629B2, “Heterocyclic inhibitors of ERK1 and ERK2 and their use in the treatment of cancer” (Asana Biosciences, LLC, priority 2015, dated 2024).

Format in all cases: cell-based, human
Test [1] deals with HT-29 (colorectal carcinoma, B-RafV600E) cells. As to the kind of experiment: Cell proliferation (Alamar Blue) assay, HT-29. As to conditions: Homo sapiens, HT-29, HT29 cells. The gist of the method: (§1)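 IC50 values derive from variable-slope sigmoidal fits of Alamar Blue fluorescence (540 nm excitation, 590 nm emission, 1-3 h dye incubation). Compound treatment ran 72 h at 37° C./5% CO2 over roughly 0.0005-10 uM in 3-fold steps, on cells plated at 5000/well and pre-incubated 16-24 h.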
Background: Resazurin is reduced to fluorescent resorufin, in cell work by metabolically active cells.

The subject of test [2] is HCT116 (colorectal carcinoma, K Ras G13D) cells. The test is described as follows: Cell proliferation (Alamar Blue) assay, HCT116. The following applies: Homo sapiens, HCT-116, HCT116 cells. The gist of the method: as §1
For test [3], the system named is phosphorylation of RSK1(S380) (the downstream target of ERK1/2). As to the kind of experiment: Phospho-RSK1(S380) ELISA assay in HT-29 cells. The following applies: Homo sapiens, HT-29, HT29 cells, phospho-RSK1(S380); read-out: Mechanistic Cell Assay RSK1 Phos HT29 IC50. The method in brief: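 HT-29 colorectal carcinoma cells (B-RafV600E), plated overnight at 37° C./5% CO2, were treated with compound dilutions for 2 h. Lysates were analysed by phospho-RSK1(Ser380) sandwich ELISA with absorbance at 450 nm. IC50 came from a sigmoidal variable-slope dose-response fit.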
On the technique in general: In an ELISA, binding on a coated surface is turned into a signal by an enzyme label.

In general, IC50 refers to the point on the concentration scale where inhibition reaches its midpoint. Consider `Cc1cnc(Nc2ccc(F)cc2)nc1-n1ccc(C(=O)NC(CO)c2ccccc2)c1` (stereo not drawn) [Example 114, 1-(2-((4-fluoro-phenyl)amino)-5-methyl-pyrimidin-4-yl)-N-(2-hydroxy-1-phenylethyl)-1H-pyrrole-3-carboxamide], for which the IC50 in test [1] lay within 500 to 2500 nM; in test [2], 250 to 500 nM; in test [3], 100 to 250 nM.
Turning to `Cc1cnc(NC2CC2)nc1-n1ccc(C(=O)NC(CO)c2cccc(Cl)c2)c1` (stereo not drawn) [Example 115, N-(1-(3-chloro-phenyl)-2-hydroxy-ethyl)-1-(2-(cyclopropyl-amino)-5-methyl-pyrimidin-4-yl)-1H-pyrrole-3-carboxamide], the IC50 in test [1] is greater than 2500 nM; in test [2], greater than 2500 nM; in test [3], 250 to 500 nM.
`O=C(N[C@H](CO)c1cccc(Cl)c1)c1cn(-c2ccnc(NC3CC3)c2)cn1` [Example 116, (S)-N-(1-(3-chlorophenyl)-2-hydroxy-ethyl)-1-(2-(cyclopropyl-amino)pyridin-4-yl)-1H-imidazole-4-carboxamide]: the IC50 in test [1] is greater than 2500 nM; in test [2], greater than 2500 nM; in test [3], 500 to 2500 nM.
`Cc1cnc(NC(C)c2ccccc2)nc1-n1ccc(C(=O)NC(CO)c2ccccc2)c1` (stereo not drawn) [Example 117, N-(2-hydroxy-1-phenyl-ethyl)-1-(5-methyl-2-((1-phenylethyl)amino)pyrimidin-4-yl)-1H-pyrrole-3-carboxamide]: the figures for the concentration for half-maximal inhibition (IC50) in test [1], in test [2] and in test [3] were greater than 2500 nM, greater than 2500 nM and 500 to 2500 nM, respectively.
For the compound `Cc1cnc(Nc2ccc(F)cc2)nc1-n1cnc(C(=O)NC(CO)c2ccccc2)c1` (stereo not drawn) [Example 118, 1-(2-((4-fluoro-phenyl)amino)-5-methyl-pyrimidin-4-yl)-N-(2-hydroxy-1-phenylethyl)-1H-imidazole-4-carboxamide], the IC50 in test [1] was in the range of 100 to 250 nM; in test [2] it was 500 to 2500 nM; in test [3] it was 250 to 500 nM.
On to `COc1cc(Nc2ncc(C)c(-n3ccc(C(=O)NC(CO)c4ccccc4)c3)n2)cc(OC)c1OC` (stereo not drawn) [Example 121, N-(2-hydroxy-1-phenylethyl)-1-(5-methyl-2-((3,4,5-trimethoxy-phenyl)amino)pyrimidin-4-yl)-1H-pyrrole-3-carboxamide], for which the IC50 in test [1], in test [2] and in test [3] was 250 to 500 nM each time.
For the compound `Cc1cnc(NC2CCOC2)nc1-n1ccc(C(=O)NC(CO)c2cccc(Cl)c2)c1` (stereo not drawn) [Example 123, N-(1-(3-chlorophenyl)-2-hydroxy-ethyl)-1-(5-methyl-2-((tetrahydro-furan-3-yl)amino)pyrimidin-4-yl)-1H-pyrrole-3-carboxamide], the IC50 in test [1] fell in the range of 250 to 500 nM; in test [2], 500 to 2500 nM; in test [3], 100 to 250 nM.
The like results for `O=C(NC(CO)c1cccc(Cl)c1)c1ccn(-c2cc(Nc3ccccc3)ncc2Cl)c1` (stereo not drawn) [Example 124, 1-(5-chloro-2-(phenyl-amino)pyridin-4-yl)-N-(1-(3-chlorophenyl)-2-hydroxy-ethyl)-1H-pyrrole-3-carboxamide] were, in that order, 500 to 2500 nM, greater than 2500 nM and 500 to 2500 nM.
As to `Cc1cnc(Nc2ccc(F)cc2)nc1-n1ccc(C(=O)N[C@H](CO)c2ccc(F)c(Cl)c2)c1` [Example 125, (S)-N-(1-(3-chloro-4-fluorophenyl)-2-hydroxy-ethyl)-1-(2-((4-fluoro-phenyl)-amino)-5-methyl-pyrimidin-4-yl)-1H-pyrrole-3-carboxamide], the IC50 in test [1] is 250 to 500 nM; in test [2], 250 to 500 nM; in test [3], 100 to 250 nM.
In the case of `COc1cc(Nc2ncc(C)c(-n3ccc(C(=O)N[C@H](CO)c4ccc(F)c(Cl)c4)c3)n2)cc(OC)c1OC` [Example 126, (S)-N-(1-(3-chloro-4-fluorophenyl)-2-hydroxy-ethyl)-1-(5-methyl-2-((3,4,5-trimethoxy-phenyl)amino)pyrimidin-4-yl)-1H-pyrrole-3-carboxamide], the IC50 is 100 to 250 nM in test [1], no more than 100 nM in test [2] and 100 to 250 nM in test [3].
In the case of `CCC(COC)Nc1ncc(C)c(-n2ccc(C(=O)NC(CO)c3cccc(Cl)c3)c2)n1` (stereo not drawn) [Example 127, N-(1-(3-chloro-phenyl)-2-hydroxy-ethyl)-1-(2-((1-methoxy-butan-2-yl)amino)-5-methyl-pyrimidin-4-yl)-1H-pyrrole-3-carboxamide], the values for the IC50 in test [1], in test [2] and in test [3] were greater than 2500 nM, greater than 2500 nM and 500 to 2500 nM, respectively.
In the case of `Cc1cnc(NC2CCOC2)nc1-n1ccc(C(=O)NC(CO)c2ccccc2)c1` (stereo not drawn) [Example 128, N-(2-hydroxy-1-phenylethyl)-1-(5-methyl-2-((tetrahydro-furan-3-yl)amino)pyrimidin-4-yl)-1H-pyrrole-3-carboxamide], the IC50 in test [1] is 500 to 2500 nM; in test [2], greater than 2500 nM; in test [3], 500 to 2500 nM.
Regarding `COc1cnc(Nc2ccc(F)cc2Cl)nc1-n1ccc(C(=O)NC(CO)c2ccccc2)c1` (stereo not drawn) [Example 129, 1-(2-((2-chloro-4-fluorophenyl)amino)-5-methoxy-pyrimidin-4-yl)-N-(2-hydroxy-1-phenylethyl)-1H-pyrrole-3-carboxamide], the IC50 in test [1] is greater than 2500 nM; in test [2] it was greater than 2500 nM; in test [3], 500 to 2500 nM.
`CCNc1ncc(C)c(-n2ccc(C(=O)NC(CO)c3ccccc3)c2)n1` (stereo not drawn) [Example 130, 1-(2-(ethyl-amino)-5-methyl-pyrimidin-4-yl)-N-(2-hydroxy-1-phenylethyl)-1H-pyrrole-3-carboxamide]: the IC50 is greater than 2500 nM in test [1], greater than 2500 nM in test [2] and 500 to 2500 nM in test [3].
`Cc1cnc(Nc2ccc3c(c2)OCCO3)nc1-n1ccc(C(=O)NC(CO)c2ccccc2)c1` (stereo not drawn) [Example 131, 1-(2-((2,3-dihydro-benzo[b][1,4]dioxin-6-yl)-amino)-5-methyl-pyrimidin-4-yl)-N-(2-hydroxy-1-phenylethyl)-1H-pyrrole-3-carboxamide]: the IC50 in test [1], in test [2] and in test [3] was 250 to 500 nM throughout.
Take `Cc1cnc(Nc2ccc3occc3c2)nc1-n1cnc(C(=O)NC(CO)c2cccc(Cl)c2)c1` (stereo not drawn) [Example 132, 1-(2-(benzo-furan-5-ylamino)-5-methyl-pyrimidin-4-yl)-N-(1-(3-chlorophenyl)-2-hydroxy-ethyl)-1H-imidazole-4-carboxamide]: the IC50 in test [1], in test [2] and in test [3] was 500 to 2500 nM in each case.
For `CC[C@@H](CO)Nc1ncc(C)c(-n2ccc(C(=O)N[C@H](CO)c3ccc(F)c(Cl)c3)c2)n1` [Example 133, N-((S)-1-(3-chloro-4-fluorophenyl)-2-hydroxy-ethyl)-1-(2-(((S)-1-hydroxy-butan-2-yl)amino)-5-methyl-pyrimidin-4-yl)-1H-pyrrole-3-carboxamide], the IC50 in test [1] fell in the range of 250 to 500 nM; in test [2] it was 500 to 2500 nM; in test [3], 250 to 500 nM.
Regarding `Cc1cnc(Nc2ccc3c(c2)CCO3)nc1-n1ccc(C(=O)NC(CO)c2cccc(Cl)c2)c1` (stereo not drawn) [Example 137, N-(1-(3-chloro-phenyl)-2-hydroxy-ethyl)-1-(2-((2,3-dihydro-benzofuran-5-yl)-mino)-5-methyl-pyrimidin-4-yl)-1H-pyrrole-3-carboxamide], the IC50 in test [1] lay within 250 to 500 nM; in test [2] it was 100 to 250 nM; in test [3], 100 to 250 nM.
As to `Cc1cnc(Nc2ccc3c(c2)CCO3)nc1-n1ccc(C(=O)NC(CO)c2ccccc2)c1` (stereo not drawn) [Example 138, 1-(2-((2,3-dihydro-benzofuran-5-yl)amino)-5-methyl-pyrimidin-4-yl)-N-(2-hydroxy-1-phenylethyl)-1H-pyrrole-3-carboxamide], the IC50 in test [1], in test [2] and in test [3] was 100 to 250 nM each time.
As to `Cc1cnc(Nc2ccc3c(c2)OCCO3)nc1-n1ccc(C(=O)NC(CO)c2cccc(Cl)c2)c1` (stereo not drawn) [Example 139, N-(1-(3-chloro-phenyl)-2-hydroxy-ethyl)-1-(2-((2,3-dihydro-benzo[b][1,4]dioxin-6-yl)amino)-5-methyl-pyrimidin-4-yl)-1H-pyrrole-3-carboxamide], the IC50 in test [1] is 250 to 500 nM; in test [2], 100 to 250 nM; in test [3] it was no more than 100 nM.
Consider `Cc1cnc(Nc2ccc3[nH]ncc3c2)nc1-n1ccc(C(=O)NC(CO)c2ccccc2)c1` (stereo not drawn) [Example 140, 1-(2-((1H-indazol-5-yl)amino)-5-methyl-pyrimidin-4-yl)-N-(2-hydroxy-1-phenylethyl)-1H-pyrrole-3-carboxamide], for which the IC50 in test [1] was 500 to 2500 nM; in test [2], 500 to 2500 nM; in test [3], greater than 2500 nM.
For the compound `Cc1cnc(NC2CCCOC2)nc1-n1ccc(C(=O)NC(CO)c2ccccc2)c1` (stereo not drawn) [Example 141, N-(2-hydroxy-1-phenylethyl)-1-(5-methyl-2-((tetrahydro-2H-pyran-3-yl)amino)-pyrimidin-4-yl)-1H-pyrrole-3-carboxamide], the IC50 in test [1], in test [2] and in test [3] was greater than 2500 nM throughout.
As to `COc1cc(F)ccc1Nc1ncc(C)c(-n2ccc(C(=O)NC(CO)c3cccc(Cl)c3)c2)n1` (stereo not drawn) [Example 142, N-(1-(3-chloro-phenyl)-2-hydroxy-ethyl)-1-(2-((4-fluoro-2-methoxy-phenyl)amino)-5-methyl-pyrimidin-4-yl)-1H-pyrrole-3-carboxamide], the IC50 in test [1] is 500 to 2500 nM; in test [2], 500 to 2500 nM; in test [3], 250 to 500 nM.
